Activity calls are given as the source filed them. The calls are words filed in the database; no cut-off is given here.
Columns and labels:
[1] = target: T1, Estrogen receptor (Homo sapiens) (UniProt P03372); test: Induction of ERalpha degradation in human MCF7 cells at 0.3 to 3 uM after 6 hrs by Western blot analysis; type: cell-based
T1 sequence (whole entry): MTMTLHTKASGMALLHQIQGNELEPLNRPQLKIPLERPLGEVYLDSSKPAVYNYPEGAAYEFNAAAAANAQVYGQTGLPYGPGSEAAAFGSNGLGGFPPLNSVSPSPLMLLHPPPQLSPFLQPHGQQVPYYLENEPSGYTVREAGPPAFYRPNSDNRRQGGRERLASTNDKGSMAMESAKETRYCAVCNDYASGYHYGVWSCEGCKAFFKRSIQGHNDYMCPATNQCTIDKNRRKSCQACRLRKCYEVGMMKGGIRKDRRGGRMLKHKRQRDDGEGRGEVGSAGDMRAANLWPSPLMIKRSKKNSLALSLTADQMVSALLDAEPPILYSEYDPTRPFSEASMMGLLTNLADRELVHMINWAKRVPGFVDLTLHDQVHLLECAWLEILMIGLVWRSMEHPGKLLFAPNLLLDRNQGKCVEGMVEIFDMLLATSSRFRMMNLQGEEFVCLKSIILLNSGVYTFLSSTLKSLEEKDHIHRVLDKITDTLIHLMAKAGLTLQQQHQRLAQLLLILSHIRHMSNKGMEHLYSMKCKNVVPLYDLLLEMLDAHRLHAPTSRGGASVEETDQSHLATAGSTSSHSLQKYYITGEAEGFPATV

[2] = target: T1, Estrogen receptor (Homo sapiens); test: Induction of ERalpha degradation in human MCF7 cells assessed as ERalpha/actin ratio level at 0.3 uM after 6 hrs by Western blot analysis (reference value: 100%); type: cell-based
[3] = target: T1, Estrogen receptor (Homo sapiens); test: Induction of ERalpha degradation in human MCF7 cells assessed as ERalpha/actin ratio level at 1 uM after 6 hrs by Western blot analysis (reference value: 100%); type: cell-based
[4] = target: T1, Estrogen receptor (Homo sapiens); test: Induction of ERalpha degradation in human MCF7 cells assessed as ERalpha/actin ratio level at 3 uM after 6 hrs by Western blot analysis (reference value: 100%); type: cell-based
[5] = target: T1, Estrogen receptor (Homo sapiens); test: Induction of ERalpha degradation in human MCF7 cells assessed as ERalpha/actin ratio level at 5 uM after 6 hrs by Western blot analysis (reference value: 100%); type: cell-based
[6] = target: T1, Estrogen receptor (Homo sapiens); test: Induction of ERalpha degradation in human MCF7 cells at 3 to 10 uM after 6 hrs by Western blot analysis; type: cell-based
[7] = tested on: MCF7; test: Cytotoxicity against human MCF7 cells at 10 uM after 6 hrs; type: cell-based; conditions: mcf7, 6 h
[8] = target: T1, Estrogen receptor (Homo sapiens); test: Induction of ERalpha degradation in human MCF7 cells assessed as ERalpha/actin ratio level at 10 uM after 6 hrs by Western blot analysis (reference value: 100%); type: cell-based
[9] = tested on: MCF7; test: Cytotoxicity against human MCF7 cells at >6 uM after 6 hrs; type: cell-based; conditions: mcf7, 6 h
[10] = target: T1, Estrogen receptor (Homo sapiens); test: Induction of ERalpha degradation in human MCF7 cells assessed as ERalpha/actin ratio level at 6 uM after 6 hrs by Western blot analysis (reference value: 100%); type: cell-based
[11] = target: T2, Androgen receptor (Homo sapiens) (UniProt P10275); test: Induction of AR degradation in human MCF7 cells at 3 to 6 uM after 6 hrs by Western blot in presence of MG132; type: cell-based
T2 sequence (whole entry): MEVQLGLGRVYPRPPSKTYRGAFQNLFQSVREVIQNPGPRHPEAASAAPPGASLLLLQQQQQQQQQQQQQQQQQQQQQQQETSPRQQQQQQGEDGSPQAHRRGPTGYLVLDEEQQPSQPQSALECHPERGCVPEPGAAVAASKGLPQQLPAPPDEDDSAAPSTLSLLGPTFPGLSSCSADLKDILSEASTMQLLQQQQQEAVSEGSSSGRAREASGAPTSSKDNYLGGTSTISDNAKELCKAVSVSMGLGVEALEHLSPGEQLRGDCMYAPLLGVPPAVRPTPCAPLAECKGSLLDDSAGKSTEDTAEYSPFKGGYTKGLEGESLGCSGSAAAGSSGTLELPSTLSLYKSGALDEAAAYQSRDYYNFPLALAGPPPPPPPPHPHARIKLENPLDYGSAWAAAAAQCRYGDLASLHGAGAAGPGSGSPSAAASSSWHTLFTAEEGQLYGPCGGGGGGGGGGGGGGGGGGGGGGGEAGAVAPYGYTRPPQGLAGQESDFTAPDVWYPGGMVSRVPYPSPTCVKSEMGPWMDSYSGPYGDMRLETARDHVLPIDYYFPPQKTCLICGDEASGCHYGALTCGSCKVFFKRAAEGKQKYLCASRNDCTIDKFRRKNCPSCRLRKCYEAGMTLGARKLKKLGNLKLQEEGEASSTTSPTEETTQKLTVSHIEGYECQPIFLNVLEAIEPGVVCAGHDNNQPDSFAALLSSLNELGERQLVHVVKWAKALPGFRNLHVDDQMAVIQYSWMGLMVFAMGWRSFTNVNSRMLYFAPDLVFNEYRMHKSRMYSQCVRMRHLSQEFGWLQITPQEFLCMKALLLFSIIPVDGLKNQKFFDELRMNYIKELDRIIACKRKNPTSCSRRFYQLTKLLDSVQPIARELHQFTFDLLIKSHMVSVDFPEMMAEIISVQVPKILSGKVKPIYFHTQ

[12] = target: T2, Androgen receptor (Homo sapiens); test: Induction of AR degradation in human MCF7 cells assessed as AR/actin ratio level at 3 uM after 6 hrs by Western blot analysis (reference value: 100%); type: cell-based
[13] = target: Aryl hydrocarbon receptor (Homo sapiens) (UniProt P35869); test: Induction of AhR degradation in human MCF7 cells assessed as AhR/actin ratio level at 4.5 uM after 6 hrs by Western blot analysis (reference value: 100%)
[14] = target: Aryl hydrocarbon receptor (Homo sapiens) (UniProt P35869); test: Induction of AhR degradation in human MCF7 cells assessed as AhR/actin ratio level at 6 uM after 6 hrs by Western blot analysis (reference value: 100%)
[15] = target: T1, Estrogen receptor (Homo sapiens); test: Induction of ERalpha degradation in human MCF7 cells assessed as ERalpha/actin ratio level at 4.5 uM after 6 hrs by Western blot analysis (reference value: 100%); type: cell-based
[16] = target: T2, Androgen receptor (Homo sapiens); test: Induction of AR degradation in human MCF7 cells at 3 to 6 uM after 6 hrs by Western blot analysis; type: cell-based
[17] = target: T2, Androgen receptor (Homo sapiens); test: Induction of AR degradation in human MCF7 cells assessed as AR/actin ratio level at 4.5 uM after 6 hrs by Western blot analysis (reference value: 100%); type: cell-based
[18] = target: T1, Estrogen receptor (Homo sapiens); test: Induction of ERalpha degradation in human MCF7 cells after 6 hrs by Western blot analysis; type: cell-based
[19] = target: T2, Androgen receptor (Homo sapiens); test: Induction of AR degradation in human MCF7 cells assessed as AR/actin ratio level at 6 uM after 6 hrs by Western blot analysis (reference value: 100%); type: cell-based
[20] = target: T3, Aryl hydrocarbon receptor (Homo sapiens, UniProt P35869); test: Induction of AhR degradation in human MCF7 cells at 3 to 6 uM after 6 hrs by Western blot analysis; type: cell-based; conditions: mcf7, 6 h
T3 sequence (P35869 whole entry): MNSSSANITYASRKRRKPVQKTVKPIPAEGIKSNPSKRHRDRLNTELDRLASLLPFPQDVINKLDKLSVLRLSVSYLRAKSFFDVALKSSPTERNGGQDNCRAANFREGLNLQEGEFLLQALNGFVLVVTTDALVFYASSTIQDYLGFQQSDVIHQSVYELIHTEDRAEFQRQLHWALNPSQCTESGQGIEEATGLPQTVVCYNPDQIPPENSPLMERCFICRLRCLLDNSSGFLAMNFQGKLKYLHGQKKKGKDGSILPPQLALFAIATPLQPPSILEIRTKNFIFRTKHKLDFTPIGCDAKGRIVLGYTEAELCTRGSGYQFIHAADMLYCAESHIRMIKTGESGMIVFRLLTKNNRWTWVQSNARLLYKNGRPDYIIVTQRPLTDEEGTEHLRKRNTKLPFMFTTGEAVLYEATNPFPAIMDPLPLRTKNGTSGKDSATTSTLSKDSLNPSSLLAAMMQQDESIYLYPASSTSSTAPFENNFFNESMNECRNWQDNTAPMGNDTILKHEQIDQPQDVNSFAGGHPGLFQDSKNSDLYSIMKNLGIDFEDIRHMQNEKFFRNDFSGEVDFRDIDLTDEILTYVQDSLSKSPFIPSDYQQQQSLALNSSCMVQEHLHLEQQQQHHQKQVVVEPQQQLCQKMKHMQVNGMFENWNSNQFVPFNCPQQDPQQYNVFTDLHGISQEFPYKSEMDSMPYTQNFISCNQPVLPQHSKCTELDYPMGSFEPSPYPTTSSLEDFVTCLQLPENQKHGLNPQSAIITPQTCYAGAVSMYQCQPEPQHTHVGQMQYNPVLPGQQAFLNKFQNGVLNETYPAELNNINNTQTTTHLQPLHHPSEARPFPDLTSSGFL

[21] = target: Baculoviral IAP repeat-containing protein 2 (Homo sapiens) (UniProt Q13490); test: Induction of cIAP1 degradation in human MCF7 cells after 6 hrs by Western blot analysis; type: cell-based
Chain of Baculoviral IAP repeat-containing protein 2 (Homo sapiens) (Q13490 whole entry): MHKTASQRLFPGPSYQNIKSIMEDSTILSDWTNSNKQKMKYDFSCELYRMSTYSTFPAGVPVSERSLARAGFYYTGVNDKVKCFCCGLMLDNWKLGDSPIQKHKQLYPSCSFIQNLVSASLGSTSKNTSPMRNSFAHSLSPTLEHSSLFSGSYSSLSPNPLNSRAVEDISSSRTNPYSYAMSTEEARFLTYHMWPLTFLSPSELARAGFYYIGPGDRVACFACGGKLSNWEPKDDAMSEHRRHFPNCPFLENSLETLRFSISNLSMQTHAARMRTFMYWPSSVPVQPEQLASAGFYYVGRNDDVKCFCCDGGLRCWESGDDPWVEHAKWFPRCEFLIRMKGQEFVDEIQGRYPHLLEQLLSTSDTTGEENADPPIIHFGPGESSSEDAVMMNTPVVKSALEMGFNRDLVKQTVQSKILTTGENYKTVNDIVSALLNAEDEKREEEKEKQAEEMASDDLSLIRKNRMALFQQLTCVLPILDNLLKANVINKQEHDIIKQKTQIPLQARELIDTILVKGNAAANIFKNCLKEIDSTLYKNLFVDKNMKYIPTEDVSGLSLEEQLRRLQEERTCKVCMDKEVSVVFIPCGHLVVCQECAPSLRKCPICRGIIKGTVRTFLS

[22] = target: Aryl hydrocarbon receptor (Homo sapiens) (UniProt P35869); test: Induction of AhR degradation in human MCF7 cells assessed as AhR/actin ratio level at 3 uM after 6 hrs by Western blot analysis (reference value: 100%)
[23] = target: Baculoviral IAP repeat-containing protein 2 (Homo sapiens) (UniProt Q13490); test: Induction of cIAP1 degradation in human MCF7 cells at 1 uM after 6 hrs by Western blot analysis; type: cell-based
[24] = target: T1, Estrogen receptor (Homo sapiens); test: Induction of ERalpha degradation in human MCF7 cells assessed as ERalpha/actin ratio level at 0.1 uM after 6 hrs by Western blot analysis (reference value: 100%); type: cell-based
[25] = target: T1, Estrogen receptor (Homo sapiens); test: Induction of ERalpha degradation in human MCF7 cells at 0.1 to 1 uM after 6 hrs by Western blot analysis; type: cell-based

In the case of CC[C@H](C)[C@H]1NC(=O)[C@@H](NC(=O)[C@@H](N)CCCCNC(=O)[C@@H](NC(=O)[C@@H]2CCCN2C(=O)[C@H](NC(=O)[C@H](C)NC)C2CCCCC2)C(c2ccccc2)c2ccccc2)CSSC[C@H](C(=O)N[C@H](CCCNC(=N)N)C(=O)N[C@H](CC(C)(C)C)C(=O)N[C@H](CC(C)C)C(=O)N[C@H](CCC(N)=O)C(=O)NCC(=O)NCC(=O)NCC(=O)N[C@H](CCCNC(=N)N)C(=O)N[C@H](CCCNC(=N)N)C(=O)N[C@H](CCCNC(=N)N)C(=O)N[C@H](CCCNC(=N)N)C(=O)N[C@H](CCCNC(=N)N)C(=O)N[C@H](CCCNC(=N)N)C(=O)N[C@@H](CCCNC(=N)N)C(N)=O)NC(=O)[C@@H](CC(C)C)NC1=O, the Activity [1] is reported as “inactive”, the Activity [2] is reported as 109% and the Activity [3] is reported as 114%. It also gave an Activity [4] of 95%.

In the case of CC[C@H](C)[C@H]1NC(=O)[C@@H](NC(=O)[C@H](CCCNC(=N)N)NC(=O)COCCOCCNC(=O)[C@@H](NC(=O)[C@@H]2CCCN2C(=O)[C@H](NC(=O)[C@H](C)NC)C2CCCCC2)C(c2ccccc2)c2ccccc2)CSSC[C@H](C(=O)N[C@H](CCCNC(=N)N)C(=O)N[C@H](CC(C)(C)C)C(=O)N[C@H](CC(C)C)C(=O)N[C@H](CCC(N)=O)C(=O)NCC(=O)NCC(=O)NCC(=O)N[C@H](CCCNC(=N)N)C(=O)N[C@H](CCCNC(=N)N)C(=O)N[C@H](CCCNC(=N)N)C(=O)N[C@H](CCCNC(=N)N)C(=O)N[C@H](CCCNC(=N)N)C(=O)N[C@H](CCCNC(=N)N)C(=O)N[C@@H](CCCNC(=N)N)C(N)=O)NC(=O)[C@@H](CC(C)C)NC1=O, the Activity [5] is reported as 99%, the Activity [6] is reported as “inactive” and the Activity [7] is reported as “Toxic”. It also gave an Activity [8] of 236% and an Activity [4] of 96%.

In the case of CC[C@H](C)[C@H]1NC(=O)[C@@H](NC(=O)[C@@H](N)CCCCNC(=O)COCCOCCNC(=O)COCCOCCNC(=O)[C@@H](NC(=O)[C@@H]2CCCN2C(=O)[C@H](NC(=O)[C@H](C)NC)C2CCCCC2)C(c2ccccc2)c2ccccc2)CSSC[C@H](C(=O)N[C@H](CCCNC(=N)N)C(=O)N[C@H](CC(C)(C)C)C(=O)N[C@H](CC(C)C)C(=O)N[C@H](CCC(N)=O)C(=O)NCC(=O)NCC(=O)NCC(=O)N[C@H](CCCNC(=N)N)C(=O)N[C@H](CCCNC(=N)N)C(=O)N[C@H](CCCNC(=N)N)C(=O)N[C@H](CCCNC(=N)N)C(=O)N[C@H](CCCNC(=N)N)C(=O)N[C@H](CCCNC(=N)N)C(=O)N[C@@H](CCCNC(=N)N)C(N)=O)NC(=O)[C@@H](CC(C)C)NC1=O, the Activity [9] is reported as “Toxic”, the Activity [10] is reported as 77% and the Activity [11] is reported as “inactive”. The Activity [12] was 77%, the Activity [13] was 178% and the Activity [14] was 137%. For the same compound, the Activity [15] was 87%, the Activity [16] was “Active” and the Activity [17] was 72%. The Activity [18] was “Dose-dependent effect”, the Activity [19] was 57% and the Activity [20] was “Not Active”. The Activity [21] was “Dose-dependent effect”, the Activity [4] was 87% and the Activity [22] was 173%.

In the case of CC[C@H](C)[C@H]1NC(=O)[C@@H](NC(=O)[C@H](N)CCCCNC(=O)COCCOCCNC(=O)[C@@H](NC(=O)[C@@H]2CCCN2C(=O)[C@H](NC(=O)[C@H](C)NC)C2CCCCC2)C(c2ccccc2)c2ccccc2)CSSC[C@H](C(=O)N[C@H](CCCNC(=N)N)C(=O)N[C@H](CC(C)(C)C)C(=O)N[C@H](CC(C)C)C(=O)N[C@H](CCC(N)=O)C(=O)NCC(=O)NCC(=O)NCC(=O)N[C@H](CCCNC(=N)N)C(=O)N[C@H](CCCNC(=N)N)C(=O)N[C@H](CCCNC(=N)N)C(=O)N[C@H](CCCNC(=N)N)C(=O)N[C@H](CCCNC(=N)N)C(=O)N[C@H](CCCNC(=N)N)C(=O)N[C@@H](CCCNC(=N)N)C(N)=O)NC(=O)[C@@H](CC(C)C)NC1=O, the Activity [23] is reported as “Active”, the Activity [2] is reported as 100% and the Activity [3] is reported as 92%. The Activity [24] was 105% and the Activity [25] was “inactive”.
